Measured values as given in patent US4657898A, “N^6 -substituted adenosines and method of use” (Warner-Lambert Company, priority 1985, dated 1987).

Assays:
[1] = Mouse Activity and Screen Test Procedure (MAST): inhibition of locomotion (LI); type: in vivo, mouse (Swiss-Webster)
Protocol: Treatments are administered intraperitoneally one hour prior to testing. […] Compounds are dissolved or suspended in 0.2% Methocel. Control animals are injected with Methocel.
Immediately following the screen test, the final phase of testing is initiated by placing each group of three mice in one actophotometer (Life Sciences, 22, 1067-1076, 1978). The actophotometer consists of a cylindrical chamber whose center is occupied by another cylinder which contains the illumination for six photocells located on the perimeter of the chamber. Six light-beam interruptions equal one count. Locomotor activity is recorded by computer at ten minute intervals for 60 minutes.
The compounds are identified in the Examples.

[2] = Mouse Activity and Screen Test Procedure (MAST): screen test failure (ST); conditions: lowest dose at which an A rating is achieved, screen test; i.p., mouse
Protocol: Nine unfasted Swiss-Webster male mice weighing 20-30 g are equally divided into three groups for each drug dose to be tested. That is, data for each dose level was generated by three separate groups of three mice each.
A minimum of three dose levels (10, 30, and 100 mg/kg) are tested for each drug. Treatments are administered intraperitoneally one hour prior to testing. All dosages are calculated as parent compound and given in volumes of 10 ml/kg. Compounds are dissolved or suspended in 0.2% Methocel. Control animals are injected with Methocel.
Testing: A two part testing procedure is started one hour postinjection. First, the screen test (ST) is performed (see Pharmac. Biochem. Behav. 6, 351-353, 1977). Briefly this test consists of placing mice on individual wire screens which are then rotated 180 degrees at the start of a 60 second observation period. The number of mice falling off the inverted screen is recorded.
Data: The data obtained from the screen test are expressed as percent of mice falling off the screen. Data derived from locomotor activity of drug treated mice are compared to the activity of vehicle treated animals and are expressed as percent inhibition of spontaneous locomotion. All percentages reported for inhibition of locomotion (LI) are based upon data accumulated for one hour. Both phases of testing are graded: A=60-100%; C=31-59%; and N=0-30%. An overall dose rating is obtained by the following criteria:
LAD refers to the lowest dose at which an A rating is achieved. […] The compounds are identified in the Examples.

[3] = Antihypertensive evaluation (AHP3), aortic blood pressure and heart rate in conscious rats; type: in vivo; conditions: conscious rat
From the text: […] EVALUATION (AHP3)
This test procedure is described in the following paragraphs.
A Method for the Direct Monitoring of Aortic Blood Pressure and Heart Rate from Conscious Rats
The continuous monitoring of pulsatile blood pressure (BP) from unrestrained conscious rats surgically equipped with polyethylene cannulas was accomplished by means of a computer assisted data capture scheme (CADCS). The basic elements of the methodology are the cannulation procedure and the CADCS.
Cannulation Procedure: Rats were anesthetized with Telazol (1:1 tiletamine HCl and zolazepam HCl); 20-40 mg/kg IM and the descending aorta exposed via a midline incision. Cannulas fabricated from polyethylene tubing were inserted into the aorta via an undersized puncture hole below the renal arteries. The puncture hole was made by a 23G disposable needle with a section of the aorta clamped off above and below the puncture site. The cannulas, consisting of a PE100 (0.86 mm ID) body and a PE50 (0.5mm ID) tip, were attached to a trocar, inserted through the psoas muscle, and passed subcutaneously along the midline of the back and externalized between the ears. The cannulas were anchored to the psoas muscle and between the scalulae (3-0 green braided suture). The midline incision was closed in two steps (muscle first, skin second) using continuous over-and over sutures (4-0 chronic). Each rat was then given penicillin 30,000 units subcutaneously (Penicillin G Procaine Sterile Suspension).
The rats were fitted with a harness-spring-swivel assembly designed to protect the cannula and to provide the rat relative freedom of movement. The harnesses were fabricated from nylon hook and loop tape cemented to a metal plate to which spring wires (18-8 stainless steel), were attached to brass swivels. Each polyethylene cannula was channeled through a spring and connected through a swivel to a pressure transducer (Model P23Gb; Statham Instruments; Hato Rey, Puerto Rico) and an infusion pump (Sage model 234-7; Orion Research, Cambridge, MA) by means of PE100 tubing. While on test, each rat received a continuous slow infusion of heparinized saline solution (approximately […] or 40 units of heparin per 24 hour period) to prevent clot formation. Additional "flushes" of the cannula with heparinized saline were carried out when the aortic pulse pressure (systolic minus diastolic) was less than 25 mm Hg.
CADCS: The pulsatile blood pressure and heart rate of each of 32 rats was monitored every minute by means of two in-laboratory microcomputers communicating directly with a data concentrator computer. The data were first stored on the data concentrator disk and then transferred to a magnetic tape for analysis and report generation by the main research computer. The overall scheme involved modulating the primary signal from the pressure transducer, generating the primary data set of the one-minute values for systolic, diastolic, and mean blood pressures and heart rate by the in-lab microcomputer and the storage, analysis, and report generation by the main reserach computer.
The transducers were connected to analog signal conditioning modules. The modules provided a regulated excitation voltage for the transducers, amplification as required to interface the microprocessors and an active low pass filter to compensate for the pressure wave form distortion produced by the flexible, fluid filled, narrow cannula. The distortion was 22-26 Hz and this provided a reliable estimate of both systolic and diastolic blood pressure.
The microcomputers (one for each of two groups of 16 rats) were connected to the input components through the module interface units, an analog-to-digital converter for the pressure wave form signal and the digital inputs for the dose and event marker switches. The microcomputer controlled the sequential acquisition of data from the modular interface units through an internal synchronous time-of-day clock/time base generator. […]

[4] = target: T1, adenosine A1 receptor (Rattus norvegicus, UniProt P25099); assay: Adenosine Receptor Binding--A1 Receptor Affinity (RBA1), [3H]-CHA; parameters: species or system rat (male Long Evans)
T1 construct: Whole brain minus cerebellum and brainstem from male Long Evans rats; from tissue; host or cells: rat whole brain minus cerebellum and brainstem, membranes (male Long Evans)
T1 sequence (P25099 1-326): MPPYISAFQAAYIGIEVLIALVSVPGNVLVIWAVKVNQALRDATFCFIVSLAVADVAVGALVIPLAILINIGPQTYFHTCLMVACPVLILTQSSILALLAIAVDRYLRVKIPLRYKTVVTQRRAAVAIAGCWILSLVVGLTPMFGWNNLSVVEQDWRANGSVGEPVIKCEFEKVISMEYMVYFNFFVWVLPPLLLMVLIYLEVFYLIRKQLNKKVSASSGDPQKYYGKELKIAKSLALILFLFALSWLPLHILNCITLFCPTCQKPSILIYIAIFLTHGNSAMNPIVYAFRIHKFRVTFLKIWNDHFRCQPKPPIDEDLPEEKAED
Protocol: Adenosine Receptor Binding--A1 Receptor Affinity (RBA1)
Whole brain minus cerebellum and brainstem from male Long Evans rats (150-200 g) was homogenized in 30 volumes of ice-cold 0.05M Tris-HCl buffer pH 7.7 using a Brinkman Polytron PT-10, (setting number 6 for 20 seconds) and centrifuged for ten minutes at 20,000 xg (Sorvall RC-2), 4° C. The supernatant was discarded, and the pellet was resuspended and centrifuged as before. The pellet was resuspended in 20 ml Tris-HCl buffer containing two International Units/ml of adenosine deaminase (Sigma type III from calf intestinal mucosa), incubated at 37° C. for 30 minutes, then subsequently at 0° C. for ten minutes. […]
Tissue homogenate (10 mg/ml) was incubated in 0.05M Tris-HCl buffer pH 7.7 containing 1.0 nM [^3 H]-N^6 -cyclohexyladenosine (^3 H]-CHA) with or without test agents in triplicate for one hour at 25° C. […] The radio-labeled ligand retained on the filter was measured by liquid scintillation spectrophotometry after shaking the filters for one hour or longer on a mechanical shaker in 10 ml of Beckman Ready-Solv HP scintillation cocktail.
Nonspecific binding was defined as the binding which occurred in the presence of 1 mM theophylline. […] The Scatchard plot was calculated by linear regression of the line obtained by plotting the amount of radioligand bound [formula] […]

[5] = target: T2, adenosine A2 receptor (Rattus norvegicus, UniProt P30543); assay: Adenosine Receptor Binding--A2 Receptor Affinity (RBA2), [3H]NECA; parameters: species or system rat (Sprague-Dawley or Long-Evans, striatum)
T2 construct: 5 mg original tissue weight of rat weight of rat striatal membranes; tissue Pel-Freez (Rogers, Ark.); host or cells: rat striatum, membranes (Sprague-Dawley; Long-Evans from Blue Spruce Farms gave essentially identical results)
T2 sequence (P30543 whole entry): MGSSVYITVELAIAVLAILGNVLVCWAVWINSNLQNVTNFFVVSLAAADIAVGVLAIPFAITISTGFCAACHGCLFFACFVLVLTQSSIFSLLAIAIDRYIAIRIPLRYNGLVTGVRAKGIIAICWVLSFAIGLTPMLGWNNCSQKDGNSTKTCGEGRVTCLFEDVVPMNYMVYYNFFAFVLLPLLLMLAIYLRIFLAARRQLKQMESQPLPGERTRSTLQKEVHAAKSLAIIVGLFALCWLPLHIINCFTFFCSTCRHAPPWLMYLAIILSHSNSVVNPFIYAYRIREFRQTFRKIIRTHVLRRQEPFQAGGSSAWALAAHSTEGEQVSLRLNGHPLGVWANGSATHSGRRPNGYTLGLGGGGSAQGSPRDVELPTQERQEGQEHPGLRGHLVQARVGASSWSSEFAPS
Protocol: Adenosine Receptor Binding--A2 Receptor Affinity (RBA2)
Brains from 200-500 g mixed sex Sprague-Dawley rats were purchased from Pel-Freez (Rogers, Ark.). […] Brains were thawed and then kept on ice while the striata were dissected out. Striata were disrupted in 10 vol of ice-cold 50 mM Tris.HCl (pH 7.7 at 25° C., pH 8.26 at 5° C.) (Tris) for 30 seconds in a Polytron PT-10 (Brinkmann) at setting 5. The suspension was centrifuged at 50,000 xg for ten minutes, the supernatant discarded, the pellet resuspended in 10 vol ice-cold Tris as above, recentrifuged, resuspended at 1 g/5 ml, and stored in plastic vials at -70° C. […] When needed, tissue was thawed at room temperature, disrupted in a Polytron, and kept on ice until used. […]
Incubations were terminated by filtration through 2.4 cm GF/B filters under reduced pressure. […] Filters were put in scintillation vials, 8 ml of Formula 947 scintillation fluid added, and the vials left overnight, shaken, and counted in a liquid scintillation counter at 40% efficiency.
The IC50 was calculated by weighted nonlinear least squares curve-fitting to the mass-action equation. […]
Weighting factors were calculated under the assumption that the standard deviation was proportional to the predicted value of Y. Nonspecific binding was treated as a very large (infinite) concentration of drug in the computer analysis.

Compound	Inhibition of mouse locomotor activity ([1]; 10 mg/kg i.p.)	Inhibition of mouse locomotor activity ([1]; 30 mg/kg i.p.)	Inhibition of mouse locomotor activity ([1]; 100 mg/kg i.p.)	MAST ST LAD [2]	HR.uparw. (change in heart rate) ([3]; 1 mg/kg)	Mμ.c..dwnarw. (change in MAP) ([3]; 1 mg/kg)	HR.uparw. (change in heart rate) ([3]; 3 mg/kg)	Mμ.c..dwnarw. (change in MAP) ([3]; 3 mg/kg)	HR.uparw. (change in heart rate) ([3]; 10 mg/kg)	Mμ.c..dwnarw. (change in MAP) ([3]; 10 mg/kg)	HR.uparw. (change in heart rate) ([3]; 30 mg/kg)	Mμ.c..dwnarw. (change in MAP) ([3]; 30 mg/kg)	IC50 [4]	IC50 [5]
OC[C@H]1O[C@@H](n2cnc3c(NCC(c4ccccc4)c4ccccc4)ncnc32)[C@H](O)[C@@H]1O [Example 1, N^6-(2,2-Diphenylethyl)adenosine]	92%	93%	94%	> 100 mg/kg	< 20%	16%	< 20%	20%	< 20%	20%	< 20%	35%		
O=[N+]([O-])c1ccc(C(CNc2ncnc3c2ncn3[C@@H]2O[C@H](CO)[C@@H](O)[C@H]2O)c2ccc([N+](=O)[O-])cc2)cc1 [Example 20]				> 100 mg/kg									229 nM	559 nM
